Results published in patent publication US9834514B2, “Antibiotic sensitivity-restoring and photosensitive agents” (New Mexico Tech Research Foundation, priority 2015, dated 2017).
pIC50: −log10 of the molar value.

Assays:
[1] = test system: P. aeruginosa; experiment: MIC against P. aeruginosa; type: cell-based; conditions: Pseudomonas aeruginosa, read-out: MIC
Description: Only compound 1 was able to decrease the CFU/mL when used in conjunction with white light to treat P. aeruginosa.

[2] = test system: P. aeruginosa; experiment: Cell killing with compounds and PME at fixed concentrations, with and without white light; type: cell-based; conditions: for Co-treatment with PME: log reduction in the CFU/mL compared to PME alone: 20 μM compound and 0.1 μg/mL PME
Protocol: FIG. 26 is an example of the treatment of P. aeruginosa with compound 1 and PME at fixed concentrations.
P. aeruginosa cells were also treated with white light upon being incubated with compound 1 for different durations of time. In a 12×75 mm borosilicate glass culture tube, 1 mL of cell suspension was added. PME was added to the cells, and the samples were mixed using a vortex mixer. The resulting samples were incubated for 1.5 hours at 37° C. on a rotary shaking incubator at 100 rpm. Compound 1 was then added, and the samples were incubated for 30 minutes at 37° C. on a rotary shaking incubator at 100 rpm. The samples were then irradiated with white light using a Lumacare™ LC-122 for 2 minutes (irradiation λ1) and incubated overnight at 37° C. The samples were irradiated again with white light using a Lumacare™ LC-122 for 2 minutes (irradiation λ2). Ten-fold dilutions were made of each sample, and 10 μL of each dilution was drip-streaked onto an agar plate. The samples were incubated overnight at 37° C., and colony counts were performed to calculate CFU/mL.
FIG. 55 is an illustrative example of the treatment of P. aeruginosa with compound 1, PME, co-treatment with compound 1 and PME, and co-treatment with compound 1, PME, and light (λ1 and λ2) at fixed concentrations.

[3] = test system: Klebsiella pneumoniae (CRE, ATCC BAA-1705); experiment: MIC against CRE; type: cell-based; conditions: Klebsiella pneumoniae, ATCCBAA1705
Protocol: TABLE 27 details the individual MIC values of compounds 1, 7, 8, 9, 10, 11, PMB, PME, and light against CRE.
The MICs of PME and compounds 8-11 were determined against Klebsiella pneumoniae (CRE, ATCC BAA-1705). […] After the incubation with PME, the compounds were added at a concentration of 20 μM, and the samples were further incubated. At specific time points, the samples were taken and diluted ten-fold in media. Ten microliters of each dilution was then drip-streaked onto an agar plate and incubated overnight at 37° C. Colony counts were then performed and the CFU/mL were calculated.

[4] = test system: A. baumannii; experiment: Resensitization to antibiotics (log reduction, TABLE 29); type: cell-based
[5] = test system: drug-resistant bacteria; experiment: Summary of synergistic activities with antibiotic families (TABLE 45); type: cell-based; conditions: for Synergy with Oxacillin (β-lactama): *indicated ampicillin, dicloxicillin and Penicillin G
Description: TABLE 45 summarizes the synergistic activities of the seven classes of clinically used antibiotics and compounds of the invention against a variety of different drug-resistant bacteria.

[6] = test system: WI38 cells; experiment: Toxicity (IC50) on WI38 cells; type: cell-based; conditions: Homo sapiens, WI-38; normal lung fibroblast WI38 cells
Protocol: The toxicities of the compounds of the invention were determined for human cancerous cervical epithelium HeLa and normal lung fibroblast WI38 cells. The toxicities of EPIs INF-55 and INF-55Cl were quantified as controls. […] TABLE 2 compares the toxicity of compounds 7-11 on HeLa cells and normal WI38 cells.

[7] = test system: VRE; experiment: Resensitization to antibiotics (log reduction, TABLE 29); type: cell-based, Enterococcus faecalis
Protocol: In a 96-well microtiter plate, two-fold dilutions were made of each drug (starting with 100 μM) in 100 μL of a cell suspension in TSB. The resulting samples were incubated overnight at 37° C. on a rotary shaking incubator at 100 rpm. The samples were then visually inspected for turbidity. A 20% well volume of MTT reagent (5 mg/mL) was subsequently added, and the samples were incubated for about 20 minutes.

| SMILES | MIC [1] [µM] | Co-treatment with PME: log reduction in the CFU/mL compared to PME alone [2] | MIC [3] [µM] | Log Reduction ([4]; compound 5 μM, PME (0.2 μg/mL)) | pIC50 [6] | Synergy with Polymyxin B (Polypeptides) ([5]; A. baumannii ATCC 15151) | Synergy with Polymyxin E (Polypeptides) ([5]; A. baumannii ATCC 15151) | Synergy with Polymyxin B (Polypeptides) ([5]; CRE ATCC 1705) | Synergy with Polymyxin E (Polypeptides) ([5]; CRE ATCC 1705) | Synergy with Polymyxin B (Polypeptides) ([5]; CRE ATCC 2340) | Synergy with Polymyxin E (Polypeptides) ([5]; CRE ATCC 2340) | Synergy with Polymyxin B (Polypeptides) ([5]; CRE ATCC 2341) | Synergy with Polymyxin E (Polypeptides) ([5]; CRE ATCC 2341) | Synergy with Polymyxin B (Polypeptides) ([5]; CRE ATCC 2342) | Synergy with Polymyxin E (Polypeptides) ([5]; CRE ATCC 2342) | Synergy with Norfioxacin (Fluoroquinolones) ([5]; MRSA ATCC BAA-44) | Synergy with Oxacillin (β-lactama) ([5]; MRSA ATCC BAA-44) | Synergy with Polymyxin B (Polypeptides) ([5]; P. aeruginosa ATCC 27853) | Synergy with Polymyxin E (Polypeptides) ([5]; P. aeruginosa ATCC 27853) | Synergy with Norfioxacin (Fluoroquinolones) ([5]; VRE ATCC 51299) | other results |
| --- | --- | --- | --- | --- | --- | --- | --- | --- | --- | --- | --- | --- | --- | --- | --- | --- | --- | --- | --- | --- | --- |
| Clc1ccc(/C=C/c2[nH]c3ccccc3c2/C=C/c2ccc(Cl)cc2)cc1 [Compound 1] | > 100 | 2-log reduction | > 100 | 8 |  |  |  |  |  |  |  |  |  |  |  |  |  |  |  |  | Co-treatment with PME: log reduction in the CFU/mL compared to PME alone ([2]; listed as compound 1): ~2 log reduction; reduction in the CFU/mL compared to co-treatment with compound 1 and PME ([2]; additional irradiation after an overnight incubation (λ2), FIG. 55): negligible reduction; log reduction in the CFU/mL compared to co-treatment with compound 1 and PME ([2]; light immediately after a 30 minute incubation with compound 1 (λ1), FIG. 55): ~8 log; PDT ([2]; with white light, TABLE 19): ~7-log reduction; Log Reduction ([4]; compound 5 μM, PMB (0.5 μg/mL)): 8; Synergy with Erythromycin (Macrolides) ([5]; MRSA ATCC BAA-44): Synergy (1); Synergy with Tetracycline (Tetracyclines) ([5]; MRSA ATCC BAA-44, †includes doxycycline): Synergy† (1) |
| Brc1ccc(/N=N/c2c[nH]c3ccccc23)cc1 [Compound 8] | > 100 | 4-log reduction | > 100 |  | 4.93 | Synergy | Synergy | Synergy | Synergy | Synergy | Synergy | Synergy | Synergy | Synergy | Synergy | Synergy | Synergy* | Synergy | Synergy | Synergy | Co-treatment with PME: log reduction in the CFU/mL compared to PME alone ([2]; listed as compound 8): ~4 log reduction; Log Reduction ([7]; compound 7.5 μM, Norfloxacin ([…])): 4-5; Log Reduction ([4]; compound 5 μM, PME (0.05 μg/mL)): 9; Log Reduction ([4]; compound 20 μM, PMB (0.2 μg/mL)): 9; Synergy with Tetracycline (Tetracyclines) ([5]; VRE ATCC 51299): Synergy; Synergy with Vancomycin (Glycopeptides) ([5]; VRE ATCC 51299): Synergy |
| Clc1ccc(/N=N/c2c[nH]c3ccccc23)cc1 [Compound 9] | > 100 | 2-log reduction | > 100 | 8 | 4.21 | Synergy | Synergy | Synergy | Synergy | Synergy | Synergy | Synergy | Synergy | Synergy | Synergy | Synergy | Synergy* | Synergy | Synergy | Synergy | Co-treatment with PME: log reduction in the CFU/mL compared to PME alone ([2]; listed as compound 9): ~2 log reduction; Log Reduction ([7]; compound 75 μM, Norfloxacin ([…])): 4; Log Reduction ([7]; compound 75 μM, Tetracycline (1.5 μg/mL)): 3-4; Synergy with Tetracycline (Tetracyclines) ([5]; VRE ATCC 51299): Synergy; Synergy with Vancomycin (Glycopeptides) ([5]; VRE ATCC 51299): Synergy |
| Clc1ccc(Oc2c(-c3ccc(Cl)cc3)[nH]c3ccccc23)cc1 [Compound 10] | > 100 | 2-log reduction | > 100 | 8 | 4.26 | Synergy | Synergy | Synergy | Synergy | Synergy | Synergy | Synergy | Synergy | Synergy | Synergy | Synergy | Synergy* | Synergy | Synergy | Synergy | Co-treatment with PME: log reduction in the CFU/mL compared to PME alone ([2]; listed as compound 10): ~2 log reduction; Log Reduction ([7]; compound 2 μM, Tetracycline (1 μg/mL)): 3-4; Log Reduction ([7]; compound […], Vancomycin (3.5 μg/mL)): 4; Synergy with Tetracycline (Tetracyclines) ([5]; VRE ATCC 51299): Synergy; Synergy with Vancomycin (Glycopeptides) ([5]; VRE ATCC 51299): Synergy; Synergy with β-lactama (Oxacillin column; cell says dicloxicillin) ([5]; VRE ATCC 51299, dicloxicillin): Synergy |
| Clc1ccc(Oc2c(-c3ccc(Cl)cc3)[nH]c3ccc(Cl)cc23)cc1 [Compound 11] | > 100 | 2-log reduction | > 100 | 8 | 5.02 | Synergy | Synergy | Synergy | Synergy | Synergy | Synergy | Synergy | Synergy | Synergy | Synergy | Synergy | Synergy* | Synergy | Synergy | Synergy | Co-treatment with PME: log reduction in the CFU/mL compared to PME alone ([2]; listed as compound 11): about 2 log reduction; Log Reduction ([7]; compound 0.5 μM, Norfloxacin ([…])): 3-4; Log Reduction ([7]; compound 0.5 μM, Tetracycline (1.5 μg/mL)): 3; Log Reduction ([7]; compound 0.5 μM, Vancomycin (3.5 μg/mL)): 3; Synergy with Tetracycline (Tetracyclines) ([5]; VRE ATCC 51299): Synergy; Synergy with Vancomycin (Glycopeptides) ([5]; VRE ATCC 51299): Synergy |
